{
  "source": "ChEMBL document CHEMBL1125105",
  "about": "“Synthesis of 1-methyl-5-(3-azido-2,3-dideoxy-beta-D-erythro-pentofuranosyl)uracil and 1-methyl-5-(3-azido-2,3-dideoxy-2-fluoro-beta-D-arabinofuranosyl)uracil. The C-nucleoside isostere of 3'-azido-3'-deoxythymidine and its 2'-\"up\"-fluoro analogue” (J Med Chem, 1990)",
  "test_system": "H9",
  "test": "Compound was found to have no significant inhibitory activity against HIV in H9 cells",
  "assay_type": "functional, cell-based",
  "conditions": "Homo sapiens",
  "data": [
    {"smiles": "Cc1cn(C2CC(CO)C(O)C2F)c(=O)[nH]c1=O", "note": "(configuration not stated)", "values": [
      {"measurement": "Activity", "result": "No significant inhibitory activity against HIV in H9 cells"}
    ]},
    {"smiles": "Cn1cc([C@H]2C[C@H](N=[N+]=[N-])[C@@H](CO)O2)c(=O)[nH]c1=O", "values": [
      {"measurement": "Activity", "result": "No significant inhibitory activity against HIV in H9 cells"}
    ]}
  ]
}
